{
  "source": "patent US20060069038A1",
  "about": "“Irreversible caspase-3 inhibitors as active site probes” (priority 2003, published 2006)",
  "key": {"caspase-3": {"biological_target": "T1, caspase-3 (Homo sapiens, UniProt P42574)", "T1 construct": "endogenous in cells; host or cells: Jurkat cells, apoptosis induced with camptothecin", "T1 sequence (P42574 29-175 limits assumed)": "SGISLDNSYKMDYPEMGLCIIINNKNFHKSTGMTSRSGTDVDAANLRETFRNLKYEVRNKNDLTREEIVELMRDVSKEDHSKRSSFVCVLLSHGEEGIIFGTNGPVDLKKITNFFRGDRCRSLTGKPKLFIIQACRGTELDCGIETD", "T1 sequence (P42574 176-277 limits assumed)": "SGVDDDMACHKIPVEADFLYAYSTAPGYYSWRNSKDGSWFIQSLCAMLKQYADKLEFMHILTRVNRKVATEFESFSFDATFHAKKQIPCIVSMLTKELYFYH", "assay": "Caspase-3 western blot on camptothecin-treated Jurkat cell extracts", "type": "cell-based", "conditions": "camptothecin-treated Jurkat cells, FIG. 4", "method": "Jurkat cells (ATCC # TEB-152) were maintained in RPMI1640 supplemented with 10% FBS, 2 mM L-glutamine and antibiotics (penicillin and streptamycin). Apoptosis was induced on cells (1 million cells/ml) that had been starved for 36 hours in CytoSf4 media (Kemp technologies) by addition of camptothecin (Sigma; 3 μg/ml). NT2 cells (ATCC 3813555) were cultured in DMEM+10% FBS+2 mM L-glutamine and antibiotics. Apoptosis induced with camptothecin (5 μg/ml) in culture media.\nDenatured protein extracts in 1× Laemli buffer were resolved through a 18% acrylamide gradient SDS-PAGE gel (Invitrogen) at 30 mA in Tris-Glycine buffer. Samples labeled with [^125I]-M808 were migrated until the dye front reached 0.5 cm above the end of the gel, and acrylamide 1 cm above the dye front was cut out to remove all free [^125I]-M808 and reduce background. The gels were fixed for 45 minutes in a 40% Methanol-10% Acetic acid solution and dried for 90 min at 80° C. before exposure on MS Kodak film with MS intensifying screens. For Western blotting, proteins were transferred onto a […] nitrocellulose membrane (Invitrogen) in Tris-Glycine-20% methanol buffer at 40V for 2 hours. Non-specific protein binding was minimized by incubating the membranes for 1 hour in blocking buffer (5% non-fat milk/TBS/0.1% Tween-20). […] Densitometry was performed using a BioRad instrument and QuantityOne software. […]"}, "active caspases": {"system": "active caspases", "assay": "In vivo labeling of active caspases with [125I]-M808 in CLP-operated mice (thymi extracts)", "set-up": "species or system mouse", "conditions": "i.v. injection in CLP mice, radiolabeled p17 in thymi, FIG. 6", "method": "FIG. 6. A-Schematic representation of in vivo labeling of active caspases with [^125I]-M808 in CLP-operated mice. Mice underwent either sham surgery (n=2) or CLP surgery (n=5). [^125I]-M808 was injected intravenously 23.15 h later, and animals were euthanized 24 h post-surgery. B-Caspase-3 western blot of mouse thymi extracts following CLP and administration of [^125I]-M808. Arrows indicate full length pro-caspase-3 (p32) and the processed caspase large subunit (p17). C— in-vivo [^125I]-M808-labeled protein in thymi extracts from septic mice. Arrow points to a radiolabeled caspase large subunit.\nFemale Sprague-Dawley rats (250-300 g; Charles River, St-Constant, Qc, Canada) and ND4 mice (20-25 g Harlane Sprague-Dawley) were housed in a 12 hour light/dark cycle with free access to food and water. All procedures were carried out under appropriate Animal Care Committee approval in strict accordance to Merck and Co. animal care policies. For Cecal Ligation and Perforation, animals were anesthetized with 2.5% isoflurane and body temperature maintained by use of a thermoregulated heated blanket. A midline incision was made in the abdominal wall of the animal and the cecum exteriorized. The cecum was ligated with a nylon (4-0) suture proximal to the ileocecal valve. In mice, perforation of the cecum was done using a 23 g needle passed through the distal portion of the cecum. […]"}},
  "data": [
    {"smiles": "COc1ccc(-c2nc(C)no2)cc1CC(=O)N[C@H](C(=O)N[C@@H](CC(=O)O)C(=O)CSCc1ccccc1)C(C)C", "note": "[Example M791, (3S)-5-(benzylthio)-3-[(N-{[2-methoxy-5-(3-methyl-1,2,4-oxadiazol-5-yl)phenyl]acetyl}-L-valyl)amino]4-oxopentanoic acid]", "values": [
      {"measurement": "effect on caspase-3 processing (western blot)", "setting": "caspase-3", "result": "prevents the auto-processing of p20 caspase 3 into p19 and p17"}
    ]},
    {"smiles": "COc1ccc(I)cc1CC(=O)N[C@H](C(=O)NC(CC(=O)O)C(=O)CF)C(C)C", "note": "(stereo partly drawn) [[^125I]-M808, 5-fluoro-3-({N-[(5-iodo-2-methoxyphenyl)acetyl]-L-valyl}amino)-4-oxopentanoic acid]", "values": [
      {"measurement": "detection of active caspases in vivo", "setting": "active caspases", "result": "can detect active caspases in vivo"}
    ]}
  ]
}
